{"source": "patent US20120115804A1", "about": "“COMPOSITIONS AND METHODS FOR CHARACTERIZING AND TREATING NEOPLASIA” (The John Hopkins University, priority 2009, published 2012)", "key": {"[1]": {"tested_on": "VDR", "assay": "Quantitative Real-Time PCR of total VDR expression in breast cell lines", "details": "96 hours, V primer set", "protocol": "(§1) Human breast cell lines were obtained from American Type Culture Collection (Rockville, Md.) and propagated as described 17. For pharmacological assays, 1.0×10^6 cells were seeded in 25 cm^2 tissue culture flasks.\nPCR was then performed for 40 cycles using gene-specific primers. To determine total VDR levels, pre-mixed “Assay on Demand” primer-probe sets for VDR (Hs01045843_m1) and GAPDH (Hs99999905_m1) and the GeneAmp® Fast PCR Master Mix were purchased from Applied Biosystems (Foster City, Calif.) and cDNA was amplified following the manufacturer's instructions in the ABI PRISM 7900HT instrument."}, "[2]": {"tested_on": "breast cancer cell lines (HS578T, 21PT, MCF7, and T47D) and the immortalized normal breast epithelial cell line HBL100", "details": "96 hours, Calcitriol 1.5 μM, AZA 10 μM, alone or combined, five breast cell lines, vs vehicle control", "protocol": "Cell viability was measured by MTT assay.\nas §1\nCell viability was measured using the Cell Titer 96 AQ-One Solution Cell Proliferation Assay kit from Promega Corporation (Madison, Wis.). Formazan absorbance was read at 490 nm in a 96-well plate reader."}, "[3]": {"tested_on": "VDR variants", "details": "after treatment; for levels of V1 and V2 VDR variants (active transcripts): all the breast cell lines", "description": "The V1d primers, spanning exon 1d and the junction of exon 1c and exon 2, were designed to recognize the transcript variants v1d, V1d′ and v1d″ (FIG. 1). In order to detect all of these variants, the nonspecific V6 primers, spanning exon 3 and exon 4, were used.\nThe PCR products were separated on 2% agarose gels, scanned in a Gel Doc Imager (BioRad, Philadelphia, Pa.), and quantified using Image Quant software (BioRad, Philadelphia, Pa.)."}, "[4]": {"tested_on": "VDRE containing genes", "assay": "Expression of VDRE-containing genes after treatment in vitro", "type": "cell-based, human", "method": "FIGS. 6A-6C show expression levels of VDR Response Element (VDRE)-containing genes in primary breast cancer and normal breast tissue. […] Assays were performed in triplicate on a total of 8 breast cancers and 3 normal organoid preparations. […] Means and standard deviations are shown. Significant differences between normal and cancer are indicated (* p<0.05; ** p<0.01). […] The bars represent the fold induction of VDR downstream gene targets (CYP3A4[24/25OH]-white, CYP27B1[1OH]-grey, and C/EBP-hatched) over untreated control (horizontal line=1.0). Means and standard deviations of triplicate experiments are shown (* p<0.05; ** p<0.01)."}, "[5]": {"tested_on": "VDR promoter", "details": "96 hours, all breast cell lines", "protocol": "To determine whether the VDR gene promoter was hypermethylated in breast cancer, bisulfite sequencing was performed in the region 790 bp upstream to 380 bp downstream of the VDR transcription start site after treatment of cells in the presence or absence of AZA for ninety six hours (see FIG. 3).\nPCR products were separated electrophoretically and isolated using a PCR purification kit (Qiagen, Valencia, Calif.). DNA was sequenced using the M13 Reverse Primer with an Applied Biosystems automated fluorescent sequencer according to the manufacturer's instructions. Percent DNA methylation was determined using the ratio of cytidine to thymidine traces at CpG dinucleotides."}, "[6]": {"tested_on": "VDR mRNA", "details": "placental carcinoma cell lines; Pospechova et al. 2009; cited from earlier work"}}, "note": "Entries after “also recorded” stand apart in the source; their conditions may differ. Where two headings read alike, the source gives them in different places.", "data": [{"compound": "5′ deoxy-azacytidine", "values": [{"measurement": "overall expression level of VDR (total VDR transcripts)", "setting": "[1]", "result": "parallel increase"}, {"measurement": "cell viability / growth inhibition", "setting": "[2]", "result": "restoration of sensitivity"}, {"measurement": "levels of V1 and V2 VDR variants (active transcripts)", "setting": "[3]", "result": "significantly increased; also recorded: induced the re-expression"}, {"measurement": "levels of V1 and V2 VDR variants (active transcripts)", "setting": "[3]; listed as 5′ dAZA", "result": "restored"}, {"measurement": "V1d and V1d′ VDR variants, response to demethylation", "setting": "[3]; breast cell lines", "result": "less responsive"}, {"measurement": "expression of VDRE containing genes", "setting": "[4]", "result": "concurrent increase"}, {"measurement": "methylation of the CpG islands in the VDR promoter", "setting": "[5]", "result": "induced demethylation"}, {"measurement": "methylation of the CpG islands in the VDR promoter", "setting": "[5]; listed as 5′ dAZA", "result": "demethylated"}, {"measurement": "VDR mRNA expression", "setting": "[6]", "result": "re-expression"}]}, {"compound": "C=C1/C(=C\\C=C2/CCC[C@]3(C)[C@@H]([C@H](C)CCCC(C)(C)O)CC[C@@H]23)C[C@@H](O)C[C@@H]1O", "note": "[Calcitriol, 1,25-dihydroxyvitamin D3]", "values": [{"measurement": "cell viability / growth inhibition", "setting": "[2]", "result": "minimal effects; also recorded: insensitivity"}, {"measurement": "cell viability / growth inhibition", "setting": "[2]; listed as VTD", "result": "ineffective"}]}]}
